Test results as given in the supplement of paper PMC7661543.
± gives the standard deviation of the averaged measurements.

How the values were obtained:
Assay in all cases: relative cell number vs DMSO control (72 h) (% of DMSO); higher = less growth inhibition (more cells)
Details in all cases: sgRNA knockout: sgNT
BT-20 = tested on: BT-20
Procedure: (§1)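 QMAP-Seq: a pool of 5 breast cancer cell lines (ZR-75-1, SKBR3, HCC-38, MDA-MB-231, BT-20), each carrying 12 doxycycline-inducible Cas9 sgRNA perturbations (11 knockouts plus non-targeting sgNT), was treated with compounds for 72 h at four 10-fold doses (10 nM-10 uM or 1 nM-1 uM range). Barcodes were amplified and sequenced, and cell number was interpolated from 293T spike-in standard curves. The result is expressed as % of the median of DMSO wells. Two biological replicates.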

HCC-38 = tested on: HCC-38
Procedure: as §1

MDA-MB-231 = tested on: MDA-MB-231
Procedure: as §1

SKBR3 = tested on: SKBR3
Procedure: as §1

ZR-75-1 = tested on: ZR-75-1
Procedure: as §1

SMILES	relative cell number (BT-20; 10 nM)	relative cell number (BT-20; 100 nM)	relative cell number (BT-20; 1000 nM)	relative cell number (BT-20; 10000 nM)	relative cell number (HCC-38; 10 nM)	relative cell number (HCC-38; 100 nM)	relative cell number (HCC-38; 1000 nM)	relative cell number (HCC-38; 10000 nM)	relative cell number (MDA-MB-231; 10 nM)	relative cell number (MDA-MB-231; 100 nM)	relative cell number (MDA-MB-231; 1000 nM)	relative cell number (MDA-MB-231; 10000 nM)	relative cell number (SKBR3; 10 nM)	relative cell number (SKBR3; 100 nM)	relative cell number (SKBR3; 1000 nM)	relative cell number (SKBR3; 10000 nM)	relative cell number (ZR-75-1; 10 nM)	relative cell number (ZR-75-1; 100 nM)	relative cell number (ZR-75-1; 1000 nM)	relative cell number (ZR-75-1; 10000 nM)
CC(C)(C#N)c1ccc(N2C(=O)OCc3cnc4ccc(-c5cnc6ccccc6c5)cc4c32)cc1	98.1 ± 10	102 ± 7	81.3 ± 1.9	50.8 ± 23	103 ± 28	97 ± 16	82.6 ± 15	33.2 ± 4.7	104 ± 25	94.3 ± 3.9	82.3 ± 23	49.7 ± 0.79	101 ± 19	100 ± 3	79.39 ± 0.72	49 ± 9.6	86.6 ± 16	116 ± 19	55.1 ± 1.7	38.4 ± 14
CC(C)(C(=O)NCC(F)(F)C(F)(F)F)C(=O)N[C@@H]1C(=O)Nc2ccccc2-c2ccccc21	102 ± 5.3	109 ± 5.9	107 ± 33	121 ± 1.3	118 ± 3.9	99.1 ± 4.5	107 ± 3.9	109 ± 13	85.7 ± 7.5	122 ± 30	104 ± 16	97.7 ± 28	91 ± 1.3	133 ± 6.6	99 ± 36	109 ± 22	76.9 ± 11	130 ± 2.6	92.1 ± 1.7	103 ± 30
CC(C)CC(=O)Nc1n[nH]c2c1CN(C(=O)C1CCN(C)CC1)C2(C)C	114 ± 22	66.5 ± 1.9	43.3 ± 19	24.3 ± 1	112 ± 16	76.6 ± 10	42.4 ± 2	20.3 ± 0.83	112 ± 3.1	59.02 ± 0.15	18.8 ± 1.3	11 ± 4.8	108 ± 26	61.4 ± 27	30 ± 7.5	11.8 ± 1.6	70.6 ± 6.3	60.4 ± 13	31.4 ± 19	23.7 ± 10
CC(C)OC(=O)C1=CN(C(=O)c2ccc(F)c(F)c2)CC(C)(C)c2c1[nH]c1ccccc21	98.9 ± 6.3	70 ± 5.8	105 ± 24	99.6 ± 25	94.8 ± 12	89.2 ± 8.8	95.2 ± 4.8	90.8 ± 6	86.2 ± 4.9	72.1 ± 4.9	83.4 ± 6.3	130 ± 24	81.3 ± 2.4	98.8 ± 33	77.9 ± 12	89.9 ± 24	119 ± 27	123 ± 59	101 ± 44	102 ± 58
COc1cc2nc(N3CCCN(C)CC3)nc(NC3CCN(Cc4ccccc4)CC3)c2cc1OC	82 ± 20	91.6 ± 8.2	84.4 ± 5.3	5.57 ± 2.9	111 ± 19	104 ± 19	85.8 ± 5.5	5.39 ± 3.1	123 ± 5.1	94.5 ± 18	80.2 ± 13	9.21 ± 8.3	98.3 ± 25	93.735 ± 0.032	75 ± 25	5.97 ± 3.4	102 ± 40	102 ± 45	109 ± 6.8	2.54 ± 0.52
CS(=O)(=O)c1cccc(CNc2nc(Nc3ccc4c(c3)CCC(=O)N4)ncc2C(F)(F)F)c1	118 ± 28	145 ± 3.4	105.9 ± 0.85	57 ± 3.3	96.9 ± 21	119 ± 18	86.8 ± 25	50.5 ± 4.3	122 ± 34	123.1 ± 0.038	103 ± 6.8	32.1 ± 9.6	85.7 ± 19	110.3 ± 0.38	87.3 ± 18	54.4 ± 9.9	98.8 ± 47	170 ± 92	80.9 ± 4.7	45.1 ± 2.2
C[C@@H](Oc1cc(-n2cnc3ccc(CN4CCN(C)CC4)cc32)sc1C(N)=O)c1ccccc1C(F)(F)F	48.1 ± 11	26.1 ± 17	31.8 ± 0.68	23.3 ± 2.4	23.8 ± 3.1	16.7 ± 4.5	17.3 ± 0.54	17.6 ± 4.5	40.66 ± 0.27	19.5 ± 2.2	12.5 ± 0.32	8.66 ± 5.4	13.6 ± 4.1	13.5 ± 1.8	13.4 ± 4.3	23.5 ± 4.7	112 ± 14	22.1 ± 8.8	27.7 ± 3.9	29.7 ± 12
C[C@@]1(C(=O)Nc2ccc(F)nc2)CCCN1c1nc(Nc2cc(C3CC3)n[nH]2)c2cccn2n1	77.5 ± 8.7	89.5 ± 17	90 ± 11	67.5 ± 16	87.8 ± 4.9	82.5 ± 10	81.5 ± 2.7	45.49 ± 0.25	126 ± 33	96.4 ± 18	70.4 ± 5.7	43.2 ± 7.3	72 ± 24	89.9 ± 15	74.8 ± 14	66 ± 6.5	92.7 ± 27	73.9 ± 16	36 ± 18	30.8 ± 12
Cc1[nH]c(/C=C2\C(=O)Nc3ccc(S(=O)(=O)N(C)c4cccc(Cl)c4)cc32)c(C)c1C(=O)N1CCN(C)CC1	89.8 ± 4.6	95 ± 19	74.8 ± 2.8	60.9 ± 35	109 ± 14	92.58 ± 0.79	90.6 ± 7.8	55.2 ± 1.4	134 ± 62	94.8 ± 19	95.3 ± 23	42.5 ± 11	90.1 ± 7.7	102 ± 8.9	87.4 ± 16	59.6 ± 16	95.1 ± 14	97.4 ± 3.6	54 ± 27	37.5 ± 6
Cc1c(Cn2c(C)nc3c(C(=O)O)cc(N4CCOCC4)cc32)cccc1C(F)(F)F	100 ± 7.3	117 ± 23	87 ± 10	82.1 ± 1.1	115 ± 17	85.5 ± 2.4	108 ± 19	102 ± 10	105 ± 4.5	123 ± 22	93.9 ± 27	112 ± 23	137 ± 8	123 ± 22	98.4 ± 25	99.1 ± 8.4	126 ± 2.5	98.6 ± 13	72.1 ± 7	108 ± 53
Cc1cc(N2CCOCC2)cc2[nH]c(-c3c(NC[C@@H](O)c4cccc(Cl)c4)cc[nH]c3=O)nc12	70.9 ± 10	88.3 ± 11	94 ± 14	67.4 ± 17	94.97 ± 0.84	89.4 ± 24	93.6 ± 7.3	30.7 ± 3.4	85.2 ± 7.6	76.6 ± 42	77.5 ± 2.4	15 ± 2.3	107 ± 3.5	73 ± 16	60 ± 15	60.3 ± 12	78.8 ± 51	53.3 ± 10	84.2 ± 8.8	13.7 ± 10
Cc1ccc(C(=O)N(CCCN)[C@@H](c2oc3cc(Cl)ccc3c(=O)c2Cc2ccccc2)C(C)C)cc1	29.6 ± 8.5	27.7 ± 4.7	33.7 ± 11	5.17 ± 2.2	24 ± 0.85	27.8 ± 8.2	28.9 ± 4.7	5.58 ± 0.82	23 ± 9	16.8 ± 5.6	17.2 ± 11	4.71 ± 1.3	15.6 ± 15	11.3 ± 1.2	15.3 ± 5.2	5.26 ± 4.4	26.5 ± 2.3	21.8 ± 0.36	27.9 ± 5.1	3 ± 1.2
Cc1ccc(S(=O)(=O)OCC(=O)Nc2ccc(C(=O)O)c(O)c2)cc1	101 ± 26	115 ± 40	108 ± 17	95.6 ± 33	119 ± 7.6	102 ± 1.3	91.8 ± 5.4	89.6 ± 9.3	128 ± 26	61.9 ± 5.4	117 ± 20	86.1 ± 20	83.3 ± 40	77.3 ± 3.9	93.7 ± 14	116 ± 58	91.2 ± 35	68.9 ± 12	99.1 ± 36	103 ± 8.6
Cc1ccccc1-n1c(Cn2cnc3c(N)ncnc32)nc2cccc(C)c2c1=O	110 ± 2.1	133 ± 22	102 ± 15	113 ± 5.9	97.9 ± 27	104 ± 18	102 ± 12	95.6 ± 8.2	123 ± 7.7	128 ± 20	101 ± 9	153 ± 48	104 ± 11	107 ± 12	101.8 ± 0.55	93.3 ± 7.2	112 ± 23	98.5 ± 40	71.4 ± 14	105 ± 6
Cc1cnc(-c2cnc(NCCNc3ccc(C#N)cn3)nc2-c2ccc(Cl)cc2Cl)[nH]1	110 ± 4.5	103 ± 19	73.6 ± 3.6	106 ± 22	98.4 ± 21	89.08 ± 0.19	104 ± 2.4	126.9 ± 0.6	88.2 ± 11	92.2 ± 8.4	79.9 ± 25	72.7 ± 21	99.6 ± 12	91.2 ± 2.6	73.7 ± 18	85.9 ± 40	104 ± 21	85.3 ± 13	66.2 ± 15	77.1 ± 10
Cc1cnc(Nc2ccc(OCCN3CCCC3)cc2)nc1Nc1cccc(S(=O)(=O)NC(C)(C)C)c1	99.9 ± 19	92.6 ± 1.8	81.3 ± 12	42.5 ± 4.4	99.1 ± 2.6	90.301 ± 0.055	68.7 ± 8.1	11.7 ± 2.2	88.9 ± 26	116 ± 5.9	64.9 ± 6.9	5.85 ± 0.9	89 ± 48	68.7 ± 15	75.4 ± 15	16.9 ± 0.89	105 ± 22	108 ± 2.4	71.3 ± 26	10.8 ± 5.8
Cc1nc(Nc2n[nH]c3c2CN(C(=O)N[C@H](CN(C)C)c2ccccc2)C3(C)C)c2sccc2n1	77.3 ± 21	46 ± 2.4	31.8 ± 6.6	11.6 ± 6.4	64.9 ± 5	54.5 ± 3.9	31.5 ± 1.2	13.5 ± 5.3	35.5 ± 11	27.3 ± 6.1	13.4 ± 6.6	4.59 ± 3.4	60.9 ± 22	52.5 ± 9	21.3 ± 0.55	3.5 ± 2.2	40.4 ± 14	49.8 ± 19	25.6 ± 4.3	3.38 ± 1.2
N#Cc1ccc(COC[C@H]2O[C@@H](n3c(NCc4ccc(Cl)c(Cl)c4)nc4c(N)ncnc43)[C@H](O)[C@@H]2O)cc1	108 ± 25	92.7 ± 6.8	91.1 ± 26	73.2 ± 18	90.8 ± 12	99.2 ± 8.1	99.1 ± 19	93.9 ± 15	83.77 ± 0.66	98.3 ± 7	115 ± 28	28.9 ± 0.7	105 ± 14	139 ± 29	106 ± 24	60.1 ± 4.3	105 ± 48	90.5 ± 13	64.7 ± 41	39.1 ± 0.67
O=C(NOCC(O)CO)c1cc(Br)c(F)c(F)c1Nc1ccc(I)cc1F (stereo not given)	86.8 ± 14	86.9 ± 14	94.1 ± 9.3	83.5 ± 7.2	85.4 ± 6.8	83.2 ± 6.4	81.8 ± 3.8	86.2 ± 8.4	105 ± 17	75.8 ± 19	56.5 ± 25	47.5 ± 17	118 ± 48	123 ± 58	112 ± 36	83.5 ± 34	83.5 ± 48	76.9 ± 7.1	71.2 ± 4.6	56.5 ± 2.3
O=C1NC(=O)/C(=C/c2ccc3nccc(-c4ccncc4)c3c2)S1	92.4 ± 28	81.1 ± 9.8	62.2 ± 16	46.5 ± 18	95.7 ± 5	85.8 ± 11	87.5 ± 1.1	42.38 ± 0.22	79.8 ± 14	87.5 ± 0.95	96 ± 18	54.1 ± 2.6	112 ± 35	123 ± 53	90.9 ± 9.8	34.7 ± 6.4	78.3 ± 2.5	128 ± 6.6	99 ± 38	38.6 ± 7.8
OCc1ccc(-c2ccc(-c3ccc(CO)s3)o2)s1	110 ± 32	77.9 ± 13	24.9 ± 1.5	12.3 ± 6.7	118 ± 10	119 ± 4.3	110 ± 18	63.6 ± 18	117 ± 27	118 ± 5.9	102 ± 7.9	40 ± 2.9	84.8 ± 34	15.6 ± 0.84	10.9 ± 4.8	5.65 ± 0.36	59.9 ± 6	9.97 ± 1.1	10.6 ± 4.2	4.09 ± 1.8
